# Laboratory results as given in publication PMC340942, “Engineered Biosynthesis of Regioselectively Modified Aromatic Polyketides Using Bimodular Polyketide Synthases” (PLoS Biology, 2004).
# What was measured:
# [1] = Stability of purified compounds at room temperature; format: physicochemical
# [2] = test system: human mammary adenocarcinoma MCF-7 cells; assay: Cytotoxicity against MCF-7 cells (colorimetric MTT assay); format: cell-based; details: MCF7, 120 h, IC50 recorded after 5 d of drug addition, read-out: IC50, cytotoxic activity against MCF-7 cells
# Description: As described above, the biosynthetic engineering methods reported here have yielded practical routes for the production of several new as well as known anthraquinone compounds. Given the track record of this family of natural products as pharmacologically active molecules, compounds 3, 4, 9, and DMAC were assayed for cytotoxic activities against human mammary adenocarcinoma MCF-7 cells. Apoptosis was observed after 24 h of drug treatment, and IC50 values were recorded after 5 d of drug addition. […] Thus inserting the hydroxyl group at C-9 results in a 10-fold increase in cytotoxic activity.
# The studies were performed as described by Hori et al (1993). The cells were maintained at 37°C and growth was measured with the colorimetric MTT assay after each day. The IC50 values were measured after 5 d.
# [3] = biological target: T1, glucose-6-phosphate translocase (Rattus norvegicus, UniProt F7EWB7); assay: G6Pase activity assay in intact male rat liver microsomes (colorimetric inorganic phosphate); format: biochemical; details: for Inhibition of G6Pase activity of the microsome (Figure 7B): 1 mM glucose-6-phosphate; for Inhibition of G6Pase activity: 10–50 μM range
# T1 construct: using intact male rat liver microsomes; tissue BD Gentest (Becton Dickinson); host or cells: male Sprague Dawley rat liver microsomes
# T1 sequence (F7EWB7 1-429): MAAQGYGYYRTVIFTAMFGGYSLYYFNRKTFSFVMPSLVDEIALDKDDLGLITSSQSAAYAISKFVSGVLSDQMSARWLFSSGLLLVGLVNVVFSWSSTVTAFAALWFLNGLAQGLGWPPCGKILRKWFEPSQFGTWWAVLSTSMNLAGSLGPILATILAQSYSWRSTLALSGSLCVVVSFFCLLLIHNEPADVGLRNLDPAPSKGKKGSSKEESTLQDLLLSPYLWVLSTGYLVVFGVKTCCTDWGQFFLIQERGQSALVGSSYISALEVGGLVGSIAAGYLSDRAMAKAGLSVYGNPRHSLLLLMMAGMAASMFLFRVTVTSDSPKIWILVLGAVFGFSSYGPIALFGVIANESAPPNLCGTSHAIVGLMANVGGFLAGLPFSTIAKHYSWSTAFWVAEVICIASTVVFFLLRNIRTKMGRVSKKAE
# Description: Recently, the natural product mumbaistatin (Figure 7A) was identified as an extremely potent inhibitor (IC50 = 5 nM) of the glucose-6-phosphate translocase enzyme complex, an attractive target for the treatment of Type II diabetes ([Vertesy et al. 2001]). The core of mumbaistatin consists of an anthraquinone moiety that is related to several engineered compounds discussed in this report. For example, the carboxylic acid at position C-1 and the reduced C-9 are identical to those present in compounds DMAC, 8, and 9. We tested the inhibitory activities of some of these polyketides against glucose-6-phosphate translocase using intact male rat liver microsomes.
# The integrity of the microsomes was first verified by comparing the glucose-6-phosphatase (G6Pase) activity in the presence of either glucose-6-phosphate or mannose-6-phosphate.
# Male rat liver microsome (Sprague Dawley) was purchased from BD Gentest^TM (Becton Dickinson, Franklin Lakes, New Jersey, United States). Aliquots (100 μl, 2 mg/ml) in 0.25 M sucrose were stored at –80°C. Compound stock solutions were prepared in 95% ethanol and diluted with DMSO. Glucose-6-phosphate and mannose-6-phosphate were purchased from Sigma (St. Louis, Missouri, United States).
# The integrity of microsomes and G6Pase activity was measured based on the colorimetric reaction of inorganic phosphate as previously reported ([Arion 1989]). The enzyme reaction was initiated by adding 3 μl of microsome to the reaction mixture, which contained 51 μl of assay buffer (50 mM HEPES, 100 mM KCl, 2.5 mM EDTA, 2.5 mM MgCl2, and 1 mM DTT at pH 7.2), 3 μl of glucose-6-phosphate (final concentration, 1 mM), and 3 μl of inhibitor sample in DMSO. The reaction mixture was incubated at room temperature, and 13 μl of reaction mixture was taken every 10 min and quenched with 117 μl of working solution (6:2:1 mixture of 0.42% ammonium molybdate tetrahydrate in 1N H2SO4, 10% SDS in water, and 10% ascorbic acid in water). The blue reduced phosphomolybdate complex is formed after incubation at 50°C for 20 min. The absorbance was measured at 820 nm.
# [4] = test system: human mammary adenocarcinoma MCF-7 cells; design: method as in Hori et al. 1993; details: ref Hori et al. 1993; cited from earlier work
# [5] = biological target: T1, glucose-6-phosphate translocase; details: rat liver microsomes; reference inhibitor, source not given; read-out: IC50, chlorogenic acid used as reference in the G6Pase assay; cited from earlier work
# [6] = biological target: glucose-6-phosphate translocase enzyme complex; design: method as in Vertesy et al. 2001; details: ref Vertesy et al. 2001; cited from earlier work
Compound,IC50 [2],Inhibition of G6Pase activity of the microsome (Figure 7B) [3],Inhibition of G6Pase activity [3],also measured
CCCCC1=C(c2cc(O)cc(=O)o2)C(=O)CC(O)C1 (stereo not shown) [Compound 1],,,,Stability of the purified compound [1]: slowly dehydrate
CC(C)CCC1=C(c2cc(O)cc(=O)o2)C(=O)CC(O)C1 (stereo not shown) [Compound 2],,,,Stability of the purified compound [1]: slowly dehydrate
CCCCc1c(C(=O)O)c(O)cc2c1C(=O)c1c(O)cc(O)cc1C2=O [Compound 3],3.4 µg/mL,Dose-dependent inhibition,Dose-dependent inhibition,
CC(C)CCc1c(C(=O)O)c(O)cc2c1C(=O)c1c(O)cc(O)cc1C2=O [Compound 4],1.7 µg/mL,Dose-dependent inhibition,Dose-dependent inhibition,
"CCCCc1cc(O)cc2c1C(=O)c1c(O)cc(O)cc1C2=O [Compound 5, R1128b]",,,,"IC50, cytotoxic activity against MCF-7 cells (natural products) [4]: 9.5 µg/mL"
"CC(C)CCc1cc(O)cc2c1C(=O)c1c(O)cc(O)cc1C2=O [Compound 6, R1128c]",,,,"IC50, cytotoxic activity against MCF-7 cells (natural products) [4]: 6.2 µg/mL"
"Cc1c(C(=O)O)c(O)cc2c1C(=O)c1c(O)cc(O)cc1C2=O [Compound 7, 3,6,8-trihydroxy-1-methylanthraquinone-2-carboxylic acid]",,No inhibition,not,
CCCCc1c(C(=O)O)c(O)cc2c1C(=O)c1c(O)cccc1C2=O [Compound 8],,Dose-dependent inhibition,Dose-dependent inhibition,
CC(C)CCc1c(C(=O)O)c(O)cc2c1C(=O)c1c(O)cccc1C2=O [Compound 9],21.7 µg/mL,Dose-dependent inhibition,Dose-dependent inhibition,
"Cc1c(C(=O)O)c(O)cc2c1C(=O)c1c(O)cccc1C2=O [DMAC, 3,8-dihydroxy-methylanthraquinone carboxylic acid, reference compound]",26.9 µg/mL,No inhibition,not,
O=C(/C=C/c1ccc(O)c(O)c1)O[C@@H]1C[C@](O)(C(=O)O)C[C@@H](O)[C@H]1O [chlorogenic acid],,,,IC50 [5]: 260 µM
O=C(O)CC(O)CCC(=O)c1cccc(O)c1C(=O)c1c(C(=O)O)c(O)cc2c1C(=O)c1c(O)cccc1C2=O (stereo not shown) [mumbaistatin],,,,IC50 [6]: 0.005 µM
